We go through two molecules from publication PMC9387934, “Randomized single oral dose phase 1 study of safety, tolerability, and pharmacokinetics of Iminosugar UV-4 Hydrochloride (UV-4B) in healthy subjects” (PLoS Neglected Tropical Diseases, 2022).

The conditions of data set [1]: dog; cited from earlier work.
Details of data set [2]: method as in Investigator’s Brochure (IB). The following applies: ref Investigator’s Brochure (IB), cited from earlier work.
Data set [3] in a line: Prediction of human clearance and exposure by scaling of IV PK data from mouse, rat and dog against body weight. How it is done:
Pharmacokinetic parameters seen in the Phase 1a study were compared to exposure and clearance data collected in animal studies to determine if consistent parameters are observed across species (detailed ADME and PK assessment in non-human species will be described in a manuscript in preparation). Nonclinical PK and excretion studies of UV-4 as the hydrochloride salt and UV-4 free base were conducted using the oral and IV routes of administration as single doses in mice, rats, ferrets, and dogs. […] Absorption was rapid following oral administration in each nonclinical species, in alignment with the median Tmax of 0.5 to 1 hour across all dose groups in the Phase 1a study.

On the set-up of data set [4]: method as in Investigator’s Brochure (IB). The following applies: single oral dose, ferrets; ref Investigator’s Brochure (IB); cited from earlier work.

The structures appear in SMILES notation. Where a name gives a salt, the structure may show the parent alone. Some results are limits rather than exact numbers.

Broadly, the clearance is the rate of elimination divided by the concentration.

Turning to `COCCCCCCCCCN1C[C@H](O)[C@@H](O)[C@H](O)[C@H]1CO` [UV-4B, N-(9’-methoxynonyl)-1-deoxynojirimycin hydrochloride], in data set [1], the “Dose with decreased PLTs” value is reported as 2 mg/kg/dose, TID; the “Dose with decreased arterial pulse pressure” value is more than 50 mg/kg; the “Dose with decreased reticulocytes” value is on record as 10 mg/kg/dose, TID; the “Dose with decreased systolic pressure” value is listed as more than 50 mg/kg. Besides, in data set [1], the “Dose with decreased thymus weight” value is on record as ≥ 2 mg/kg/dose, TID; the “Dose with increased ALT” value is ≥ 2 mg/kg/dose, TID; the “Dose with increased AST” value is ≥ 2 mg/kg/dose, TID; the “Dose with increased aPTT” value is given as ≥ 10 mg/kg/dose, TID. Also, in data set [1], the “Dose with increased diastolic pressure” value is on record as more than 50 mg/kg; the “Dose with inverted AST/ALT ratio” value was 10 mg/kg/dose, TID; the “Dose with lymphocyte depletion in thymus, spleen, lymph nodes, and GALT” value is ≥ 2 mg/kg/dose, TID; the “Dose with nonformed feces” value is recorded as ≥ 10 mg/kg/dose, TID. In data set [1], the “Dose with salivation and vomitus” value is given as 60 mg/kg/dose, TID; the “Neurologic Effects” value is listed as “none observed”. In data set [2] (male and female rats, 50 mg/kg/day before mating through Gestation Day 13), the Fertility finding result was “decreased pregnancy and fertility indices”. For the same molecule, the Finding in males entry in data set [2] (rats, all doses (8, 20, and 50 mg/kg/day)) is “decreased sperm motility”.

Take `COCCCCCCCCCN1C[C@H](O)[C@@H](O)[C@H](O)[C@H]1CO` [UV-4, N-(9’-methoxynonyl)-1-deoxynojirimycin]: the clearance in data set [3] (human, simple scaling of systemic clearance against body weight, IV PK data of mouse, rat and dog, read-out: Human systemic clearance, estimated (converted)) was 560 mL/min. Besides, the “Total exposure (AUC(0-inf)), predicted” value in data set [3] (starting dose of 3 mg, from scaled clearance) was 89 ng·h/mL. Further, in data set [4], the t1/2 was 2 h.
